pEC50, pIC50: −log10 of the molar value. Read-outs that look alike come from different tables or passages of the source. Numbered stars: 1 amine (or outer) side, 2 acyl side, 3 side chain; on linkers, the order of the positions; unused ones are H or OH. Bridge positions count the residues as written; N and C are the ends. Side chains are listed from the residue outwards. Peptide text beside a SMILES is read from it. * marks the point of attachment. C20 diacid = O=C(O)CCCCCCCCCCCCCCCCCCC(=O)*; γGlu = O=C(O)[C@H](CCC(=O)[*:2])N[*:1]; AEEA = NCCOCCOCC(=O)O
Assays:
[1] = target: T1, human amylin receptor (amylin 3(a) receptor: human calcitonin receptor + RAMP-3) (Homo sapiens, UniProt O60896+P30988); assay: Assay (II)a functional assay, human amylin receptor (CRE luciferase, BHK cells); assay type: cell-based; settings: for pEC50: functional assay, human amylin receptor, read-out: hAmylin-R funct. EC50
T1 construct: expressed in transfected cells
T1 sequence (P30988 25-474): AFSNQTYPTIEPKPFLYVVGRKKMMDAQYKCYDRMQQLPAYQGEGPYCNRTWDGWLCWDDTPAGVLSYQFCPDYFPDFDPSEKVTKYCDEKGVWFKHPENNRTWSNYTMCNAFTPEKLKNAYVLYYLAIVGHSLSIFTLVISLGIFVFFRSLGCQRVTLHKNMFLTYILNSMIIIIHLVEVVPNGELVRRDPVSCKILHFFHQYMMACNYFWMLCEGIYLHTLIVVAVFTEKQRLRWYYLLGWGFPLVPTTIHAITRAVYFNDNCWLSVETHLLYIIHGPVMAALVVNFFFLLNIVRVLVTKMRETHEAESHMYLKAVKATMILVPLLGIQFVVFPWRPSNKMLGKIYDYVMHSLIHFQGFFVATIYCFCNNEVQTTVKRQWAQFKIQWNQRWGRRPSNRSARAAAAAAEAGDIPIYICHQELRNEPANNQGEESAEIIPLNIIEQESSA
T1 sequence (O60896 24-148 partner): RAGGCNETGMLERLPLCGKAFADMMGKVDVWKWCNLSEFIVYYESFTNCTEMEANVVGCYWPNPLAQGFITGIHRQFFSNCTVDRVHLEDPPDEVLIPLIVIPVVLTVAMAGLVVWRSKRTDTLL
Protocol: Assay (II)—Functional Assays
Consequently, transcription is activated by promoters containing multiple copies of the cAMP response element (CRE).
The cell line was further transfected with RAMP-3, using standard methods.
After incubation overnight at 37° C. and 5% CO2, the growth medium was replaced by 50 μl/well assay medium (DMEM (without phenol red), Glutamax™, 10% FBS, and 10 mM Hepes, pH 7.4). Further, 50 μl/well of standard or sample in assay buffer were added. After 3 hours incubation at 37° C. and 5% CO2, the assay medium with standard or sample were removed and replaced by 100 μl/well PBS. Further, 100 μl/well LucLite™ was added. The plates were sealed and incubated at room temperature for 30 minutes. Finally, luminescence was measured on a TopCounter (Packard) in SPC (single photon counting) mode.

[2] = target: T2, human calcitonin receptor (Homo sapiens, UniProt P30988); assay: Assay (II)a functional assay, human calcitonin receptor (CRE luciferase, BHK cells);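 also: luminescence from a CRE-driven luciferase reporter, read by single photon counting after cells were exposed to test samples for 3 h at 37 °C under 5% CO2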; assay type: cell-based; settings: read-out: hCTR funct. EC50
T2 construct: expressed in transfected cells
T2 sequence (P30988 25-474): T1 sequence (P30988 25-474)

[3] = Assay (IV) determination of solubility; assay type: physicochemical; settings: for Solubility pH 6.5 Concentration (μM): pH 6.5, 18 hours room temperature; for Solubility pH 7.0 Concentration (μM): pH 7.0, 18 hours room temperature; for Solubility pH 7.5 Concentration (μM): pH 7.5, 18 hours room temperature; for Solubility pH 8.0 Concentration (μM): pH 8.0, 18 hours room temperature
Protocol: Assay (IV)—Determination of Solubility
The polypeptide was dissolved in water at ˜500 nmol/ml and mixed 1:1 with a series of buffers (100 mM glycylglycine pH 3.0, 100 mM glycylglycine pH 4.0, 100 mM glycylglycine pH 5.0, 100 mM bistrispropane pH 6.0, 100 mM bistrispropane pH 6.5, 100 mM bistrispropane pH 7.0, 100 mM bistrispropane pH 7.5, 100 mM bistrispropane pH 8.0). After 18 hours at room temperature the samples were centrifuged and the polypeptide concentration determined by UPLC.

human amylin receptor = target: T3, human amylin receptor (Homo sapiens, UniProt O60896+P30988); assay: Assay (V) binding to the human amylin receptor (SPA, 125I-rat amylin); settings: for pIC50: read-out: hAmylin-R bind IC50
T3 construct: expressed in transfected cells
T3 sequence (P30988 25-474): T1 sequence (P30988 25-474)
T3 sequence (O60896 24-148 partner): T1 sequence (O60896 24-148 partner)
Method in brief: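 IC50, taken as receptor affinity, came from one-site binding competition analysis of scintillation proximity counts. Amylin 3(a)/CRE-luc cell membranes (35 ng/μL final) were mixed with SPA beads (0.05 mg/well) in 50 mM Hepes pH 7.4 containing CaCl2, MgCl2, 0.1% OA and 0.02% Tween20.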

[4] = target: T2, human calcitonin receptor; assay: Assay (VII) binding to the human calcitonin receptor (SPA, 125I-Calcitonin); settings: read-out: hCTR bind IC50;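 also: cell membranes coupled to SPA beads, competitive displacement read by scintillation counting, IC50 derived from a one-site competition fit as a measure of receptor affinity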
[5] = human amylin receptor membranes, SPA
[6] = Table 6, human functional selectivity (hCTR EC50 / hAmylin-R EC50)
[7] = Table 6a, human functional selectivity (hCTR EC50 / hAmylin-R EC50), at least 5
[8] = Table 6j, hCTR funct. EC50 / hAmylin-R funct. EC50
[9] = Table 6k, hCTR funct. EC50 / hAmylin-R funct. EC50

SMILES	pEC50 [1]	pEC50 [2]	Solubility pH 6.5 Concentration (μM) [3]	Solubility pH 7.0 Concentration (μM) [3]	Solubility pH 7.5 Concentration (μM) [3] [μM]	Solubility pH 8.0 Concentration (μM) [3] [μM]	pIC50 (human amylin receptor; [5])	pIC50 [4]	Ratio hCT/hAmylin funct. [1, 6]	Ratio hCT/hAmylin funct. [1, 7]	Ratio hCT/hAmylin funct. [1, 8]	Ratio hCT/hAmylin funct. [1, 9]	Solubility pH 4.0 Concentration (μM) ([3]; pH 4.0, 18 hours room temperature)	Solubility pH 6.0 Concentration (μM) ([3]; pH 6.0, 18 hours room temperature)	pIC50 (human amylin receptor; binding to human amylin receptor)	Ratio hCT/hAmylin binding (human amylin receptor; human binding ratio, included for comparison)
CC[C@H](C)[C@H](NC(=O)[C@H](C)NC(=O)CNC(=O)[C@H](Cc1ccccc1)NC(=O)[C@H](CC(N)=O)NC(=O)[C@@H]1CCCN1C(=O)[C@H](CO)NC(=O)[C@H](CO)NC(=O)[C@H](Cc1c[nH]cn1)NC(=O)[C@H](CCCNC(=N)N)NC(=O)[C@H](CC(C)C)NC(=O)[C@H](Cc1ccccc1)NC(=O)[C@H](CC(N)=O)NC(=O)[C@H](C)NC(=O)[C@H](CC(C)C)NC(=O)[C@H](CCCNC(=N)N)NC(=O)[C@H](CCC(N)=O)NC(=O)[C@@H](NC(=O)[C@H](C)NC(=O)[C@@H]1CSSC[C@H](NC(=O)[C@@H](N)CCCCNC(=O)COCCOCCNC(=O)CC[C@H](NC(=O)CCCCCCCCCCCCCCCCCCC(=O)O)C(=O)O)C(=O)N[C@@H](CC(N)=O)C(=O)N[C@@H]([C@@H](C)O)C(=O)N[C@@H](C)C(=O)N[C@@H]([C@@H](C)O)C(=O)N1)[C@@H](C)O)C(=O)N1CCC[C@H]1C(=O)N[C@@H](CO)C(=O)N[C@@H](CO)C(=O)N[C@H](C(=O)N[C@@H](CC(N)=O)C(=O)N[C@H](C(=O)NCC(=O)N1CCC[C@H]1C(=O)N[C@@H](Cc1c[nH]cn1)C(=O)N[C@H](C(=O)N[C@@H](Cc1ccc(O)cc1)C(N)=O)[C@@H](C)O)C(C)C)[C@@H](C)O [Example 58] (H-K([AEEA-γGlu-C20 diacid])CNTATCATQRLANFLRHSSPNFGAIPSSTNVGPHTY-NH2; disulfide 2-7)	10.33	8.99	≧200 μM	≧200 μM	96	48	10.06	8.02	–	–	–	–	–	–	–	–
CC[C@H](C)[C@H](NC(=O)[C@H](C)NC(=O)CNC(=O)[C@H](Cc1ccccc1)NC(=O)[C@H](CC(N)=O)NC(=O)[C@@H]1CCCN1C(=O)[C@H](CO)NC(=O)[C@H](CO)NC(=O)[C@H](Cc1c[nH]cn1)NC(=O)[C@H](CCCNC(=N)N)NC(=O)[C@H](CC(C)C)NC(=O)[C@H](Cc1ccccc1)NC(=O)[C@H](CC(N)=O)NC(=O)[C@H](C)NC(=O)[C@H](CC(C)C)NC(=O)[C@H](CCCNC(=N)N)NC(=O)[C@H](CCC(N)=O)NC(=O)[C@@H](NC(=O)[C@H](C)NC(=O)[C@@H]1CSSC[C@H](NC(=O)[C@@H](N)CCCCNC(=O)CC[C@H](NC(=O)CCCCCCCCCCCCCCCCCCC(=O)O)C(=O)O)C(=O)N[C@@H](CC(N)=O)C(=O)N[C@@H]([C@@H](C)O)C(=O)N[C@@H](C)C(=O)N[C@@H]([C@@H](C)O)C(=O)N1)[C@@H](C)O)C(=O)N1CCC[C@H]1C(=O)N[C@@H](CO)C(=O)N[C@@H](CO)C(=O)N[C@H](C(=O)N[C@@H](CC(N)=O)C(=O)N[C@H](C(=O)NCC(=O)N[C@@H](Cc1c[nH]cn1)C(=O)N[C@@H](CC(N)=O)C(=O)N[C@H](C(=O)N[C@@H](Cc1ccc(O)cc1)C(N)=O)[C@@H](C)O)C(C)C)[C@@H](C)O [Example 77]	9.84	8.27	≧200 μM	≧200 μM	147	59	9.37	7.30	–	–	–	–	–	–	–	–
CC[C@H](C)[C@H](NC(=O)[C@H](C)NC(=O)CNC(=O)[C@H](Cc1ccccc1)NC(=O)[C@H](CC(N)=O)NC(=O)[C@@H]1CCCN1C(=O)[C@H](CO)NC(=O)[C@H](CO)NC(=O)[C@H](Cc1c[nH]cn1)NC(=O)[C@H](CCCNC(=N)N)NC(=O)[C@H](CC(C)C)NC(=O)[C@H](Cc1ccccc1)NC(=O)[C@H](CC(N)=O)NC(=O)[C@H](C)NC(=O)[C@H](CC(C)C)NC(=O)[C@H](CCCNC(=N)N)NC(=O)[C@H](CCC(N)=O)NC(=O)[C@@H](NC(=O)[C@H](C)NC(=O)[C@@H]1CSSC[C@H](NC(=O)[C@@H](N)CCCCNC(=O)COCCOCCNC(=O)COCCOCCNC(=O)CC[C@H](NC(=O)CCCCCCCCCCCCCCCCCCC(=O)O)C(=O)O)C(=O)N[C@@H](CC(N)=O)C(=O)N[C@@H]([C@@H](C)O)C(=O)N[C@@H](C)C(=O)N[C@@H]([C@@H](C)O)C(=O)N1)[C@@H](C)O)C(=O)N1CCC[C@H]1C(=O)N[C@@H](CO)C(=O)N[C@@H](CO)C(=O)N[C@H](C(=O)N[C@@H](CC(N)=O)C(=O)N[C@H](C(=O)NCC(=O)N[C@@H](Cc1c[nH]cn1)C(=O)N[C@@H](CC(N)=O)C(=O)N[C@H](C(=O)N[C@@H](Cc1ccc(O)cc1)C(N)=O)[C@@H](C)O)C(C)C)[C@@H](C)O [Example 97]	9.45	7.93	≧200 μM	≧200 μM	88	43	9.25	7.23	33.0	33.0	33.0	33.0	–	–	–	–
CC[C@H](C)[C@H](NC(=O)[C@H](C)NC(=O)CNC(=O)[C@H](Cc1ccccc1)NC(=O)[C@H](CC(N)=O)NC(=O)[C@@H]1CCCN1C(=O)[C@H](CO)NC(=O)[C@H](CO)NC(=O)[C@H](Cc1c[nH]cn1)NC(=O)[C@H](CCCNC(=N)N)NC(=O)[C@H](CC(C)C)NC(=O)[C@H](Cc1ccccc1)NC(=O)[C@H](Cc1c[nH]cn1)NC(=O)[C@H](C)NC(=O)[C@H](CC(C)C)NC(=O)[C@H](CCCNC(=N)N)NC(=O)[C@H](CCC(N)=O)NC(=O)[C@@H](NC(=O)[C@H](C)NC(=O)[C@@H]1CSSC[C@H](NC(=O)[C@H](CCCNC(=N)N)NC(=O)CNC(=O)CC[C@H](NC(=O)CCCCCCCCCCCCCCCCCCC(=O)O)C(=O)O)C(=O)N[C@@H](CC(N)=O)C(=O)N[C@@H]([C@@H](C)O)C(=O)N[C@@H](C)C(=O)N[C@@H]([C@@H](C)O)C(=O)N1)[C@@H](C)O)C(=O)N1CCC[C@H]1C(=O)N[C@@H](CO)C(=O)N[C@@H](CO)C(=O)N[C@H](C(=O)N[C@@H](CC(N)=O)C(=O)N[C@H](C(=O)NCC(=O)N[C@@H](Cc1c[nH]cn1)C(=O)N[C@@H](CC(N)=O)C(=O)N[C@H](C(=O)N[C@@H](Cc1ccc(O)cc1)C(N)=O)[C@@H](C)O)C(C)C)[C@@H](C)O [Example 100] ({C20 diacid-γGlu}-GRCNTATCATQRLAHFLRHSSPNFGAIPSSTNVGHNTY-NH2; disulfide 3-8)	9.60	8.76	≧200 μM	109 μM	26	31	8.99	7.18	6.8	6.8	6.8	6.8	–	–	–	–
CC[C@H](C)[C@H](NC(=O)[C@H](C)NC(=O)CNC(=O)[C@@H]1CCCN1C(=O)[C@H](CC(N)=O)NC(=O)[C@H](CC(N)=O)NC(=O)[C@H](CO)NC(=O)[C@H](CO)NC(=O)[C@H](Cc1c[nH]cn1)NC(=O)[C@H](CCCNC(=N)N)NC(=O)[C@H](CC(C)C)NC(=O)[C@H](Cc1ccccc1)NC(=O)[C@H](CCC(=O)O)NC(=O)[C@H](C)NC(=O)[C@H](CC(C)C)NC(=O)[C@H](CCCNC(=N)N)NC(=O)[C@H](CCC(N)=O)NC(=O)[C@@H](NC(=O)[C@H](C)NC(=O)[C@@H]1CSSC[C@H](NC(=O)[C@@H](N)CCCCNC(=O)CC[C@H](NC(=O)CC[C@H](NC(=O)CCCCCCCCCCCCCCCCCCC(=O)O)C(=O)O)C(=O)O)C(=O)N[C@@H](CC(N)=O)C(=O)N[C@@H]([C@@H](C)O)C(=O)N[C@@H](C)C(=O)N[C@@H]([C@@H](C)O)C(=O)N1)[C@@H](C)O)C(=O)N[C@@H](CC(C)C)C(=O)N[C@@H](CO)C(=O)N[C@@H](CO)C(=O)N[C@H](C(=O)N[C@@H](CC(N)=O)C(=O)N[C@H](C(=O)NCC(=O)N1CCC[C@H]1C(=O)N[C@@H](CCC(=O)O)C(=O)N[C@H](C(=O)N[C@@H](Cc1ccc(O)cc1)C(N)=O)[C@@H](C)O)C(C)C)[C@@H](C)O [Example 126] (H-K([γGlu-γGlu-C20 diacid])CNTATCATQRLAEFLRHSSNNPGAILSSTNVGPETY-NH2; disulfide 2-7)	8.29	7.05	–	–	–	–	8.93	8.03	–	–	–	–	7	64	8.93	7.8

— US8575091B1, “Amylin analogues and pharmaceutical compositions thereof” (Novo Nordisk A/S, priority 2012, dated 2013)
